From patent US20250011296A1, “MODULATORS OF MOLECULAR TARGETS EXPRESSED IN METABOLIC AND INFLAMMATORY DISORDERS” (Ohio State Innovation Foundation, priority 2021, published 2025)

Experiments:
PEPCK expression = assay: Larval diabetic zebrafish assay, Western blot of PEPCK; format: in vivo; settings: duplicate Western blot (FIG. 10), diabetic zebrafish larvae, 10 μM
Procedure: (§1) Following isolation, derivatization, and analysis of compounds 41-48 through the in vitro panel of assays, the mace natural products and licarin A derivatives were investigated in the larval diabetic zebrafish assay for potential antidiabetic activity. Western blot analysis of zebrafish expression levels for glycated hemoglobin, metabolic enzymes, and molecular targets NFκB and PPAR-γ was performed to evaluate potential lead improvement and to discover possible mechanisms of action.
Wild-type zebrafish were sorted into 24-well microplates with 10 fish per well for a four-phase treatment cycle. At 72 hpf, type 2 diabetes was induced by administering 0.5 mg/mL alloxan in fish water for percutaneous absorption. After three hours of alloxan treatment, phase two of the treatment cycle was initiated by administering 10 μM doses of natural product compounds 41-43 (FIG. 4) or derivatives 45-48 (FIG. 6) with 0.01% DMSO in system water. At 78 hpf, the incubation solution was changed to 10 mg/ml D-glucose for 30 minutes, followed by a phase-four rinse in fresh system w Following the four-phase treatment cycle, zebrafish treatment groups were snap frozen in microcentrifuge tubes on dry ice, stored overnight at −80° C., thawed, and homogenized with 2 μL PBS per animal. Following centrifugation (60 minutes at 4° C. and 17,000 rpm), protein content of the homogenate supernatant was determined using the Pierce BCA Protein Assay kit (Pierce Biotechnology). Homogenates were analyzed by Western blot with equal amounts of total protein (20 μg) in each sample and using 4×LDS loading buffer (NuPAGE Life Technologies). The immunoblot samples were heated at 95° C. for 5 minutes and loaded onto NuPAGE Bis-Tris 4-12% gradient SDS-PAGE gels.
Electrophoresis was performed with NuPAGE MES SDS Running Buffer and using the XCell SureLock Mini-Cell Electrophoresis System (Life Technologies). Proteins separated on the gel were transferred to a PVDF membrane using TBST buffer. The blots were blocked in 3% BSA in TBST and subsequently probed overnight with primary antibodies (1:1000 in 1% BSA in TBST) against each target of interest. Following TBST rinses, secondary HRP-conjugated antibodies (1:2000) were applied to the membrane for 60 minutes. The HRP conjugated antibodies were detected using SuperSignal West Femto chemiluminescent substrate (Pierce Biotechnology) and immunoblot images were captured using the luminometer and Lumi Analyst 3.0 software.
(§2) Band densities were determined using ImageJ Gel Analysis to determine expression levels of each protein of interest. Expression levels of HbA1C, PPAR-γ, and NFκB were organized into a bar graphs (FIG. 5) with band densities calculated in comparison to the housekeeping gene β-actin, normalized to the untreated diabetic group (B) of zebrafish. […].

GLUT-4 expression = assay: Larval diabetic zebrafish assay, Western blot of GLUT-4; format: in vivo; settings: duplicate Western blot (FIG. 11), diabetic zebrafish larvae, 10 μM
Procedure: as §1
Wild-type zebrafish were sorted into 24-well microplates with 10 fish per well for a four-phase treatment cycle. At 72 hpf, type 2 diabetes was induced by administering 0.5 mg/mL alloxan in fish water for percutaneous absorption. After three hours of alloxan treatment, phase two of the treatment cycle was initiated by administering 10 μM doses of natural product compounds 41-43 (FIG. 4) or derivatives 45-48 (FIG. 6) with 0.01% DMSO in system water. […] Following centrifugation (60 minutes at 4° C. and 17,000 rpm), protein content of the homogenate supernatant was determined using the Pierce BCA Protein Assay kit (Pierce Biotechnology). Homogenates were analyzed by Western blot with equal amounts of total protein (20 μg) in each sample and using 4×LDS loading buffer (NuPAGE Life Technologies). […]
Electrophoresis was performed with NuPAGE MES SDS Running Buffer and using the XCell SureLock Mini-Cell Electrophoresis System (Life Technologies). […] The HRP conjugated antibodies were detected using SuperSignal West Femto chemiluminescent substrate (Pierce Biotechnology) and immunoblot images were captured using the luminometer and Lumi Analyst 3.0 software.
as §2

C/C=C/c1cc(OC)c2c(c1)[C@H](C)[C@@H](c1ccc(O)c(OC)c1)O2 [Compound 42, licarin A]
PEPCK expression (band density) (PEPCK expression): retained low PEPCK expression
GLUT-4 expression (band density) (GLUT-4 expression): significantly increased capacities for glucose uptake
